This note sets out measurements from patent publication US9555038B2, “Heterocycle-substituted tetracyclic compounds and methods of use thereof for the treatment of viral diseases” (Merck Sharp & Dohme Corp., priority 2013, dated 2017).

Each structure is given as a SMILES string. Like-named read-outs stand apart in the source and are kept apart here.

One experiment concerns HCV replicon 2B. The experiment can be described thus: Cell-based HCV Replicon Assay A, replicon 2B. The method in brief:
(§1)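 Readout: replicon RNA by real-time RT-PCR, normalised to co-amplified cyclophilin and quantified against replicon total-RNA standard curves. Cells (2000/well) treated 3 days in medium with 5% FBS and 0.5% DMSO, compound in 10 serial dilutions from starting concentrations of 333.3 nM to 1.667 nM.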
(In general: Replicon systems follow genome replication, usually without infectious particles.)

The next experiment relates to HCV replicon 1AY93H. Nature of the experiment: Cell-based HCV Replicon Assay A, replicon 1AY93H. An outline of the steps: as §1
Another experiment deals with HCV replicon 1A. Nature of the experiment: Cell-based HCV Replicon Assay A, replicon 1A. An outline of the steps: as §1
For another experiment, the system named is HCV replicon 1B. Nature of the experiment: Cell-based HCV Replicon Assay B, replicon 1B. How it is done: In an alternate assay (“Replicon Assay B”), 1000 cells were seeded per well in a 384-well collagen coated black plate from Greiner bio-one (Cat #781946) in 5% FBS. Inhibitors of this invention were added at 24 h post-seeding, and the plates were incubated for 3 days. Cells were subsequently lysed with Qiagen lysis buffer (Cat #1062731) to extract the RNA. HCV replicon RNA level was measured by real-time PCR using the RNA-to-CT kit from Applied Biosystem (Cat #4392656) and genotype-specific primers and probes. The amplicon was located within NS5B. The sequence of the PCR primers are as follows: 5B.2F, ATGGACAGGCGCCCTGA (SEQ. ID NO. 1); 5B.2R, […] (SEQ. ID NO. 2); the probe sequence was FAM-labeled CACGCCATGCGCTGCGG (SEQ. ID NO. 3). To detect genotype 1A the primer 1A F, TGCGGAACCGGTGAGTACA and 1A R, […] were used; the probe sequence was FAM-[…].
The real-time RT-PCR reactions were run on ABI PRISM 7900HT or Viia7 Sequence Detection System using the following program: 48° C. for 30 minutes, 95° C. for 10 minutes, 40 cycles of 95° C. for 15 sec, 60° C. for 1 minutes. The 50% effective concentration (EC50) was the drug concentration necessary to achieve an increase in the cycle threshold (CT) of 1 over the projected baseline CT.
Data was obtained for various compounds of the present invention using the methods described in the Example above, and is presented in the table immediately below. Data for replicons 1A, 1AY93H and 2B were obtained using Replicon Assay A and data for replicons 1AQ30D and 1B were obtained using Replicon Assay B.

Setting [1] is: Hepatitis C virus, read-out: 1A Y93H IC50 (nM), replicon 1AY93H.
Setting [2] is: read-out: 1A Y93H IC50, replicon 1AY93H.
Where [3] appears, read: Hepatitis C virus, read-out: 2B IC50 (nM), replicon 2B.
The mark [4] stands for this setting: replicon 1AY93H, read-out: 1A Y93H IC50.

As usually defined, the IC50 is the point on the concentration scale where inhibition reaches its midpoint. Turning to `COC(=O)NC(C(=O)N1[C@@H]2C[C@@H]2C[C@H]1c1ncc(-c2ccc3c(c2)cc2n3C(c3cnc(C4CC4)s3)Oc3cc(-c4cnc([C@@H]5CCCN5C(=O)[C@@H](NC(=O)OC)C(C)C)[nH]4)cc(F)c3-2)[nH]1)C1CCOC(C)(C)C1` (single isomer, unassigned) [Compound 313], the IC50 with HCV replicon 2B (read-out: 2B IC50, replicon 2B) was 0.122 nM; with HCV replicon 1AY93H (setting [1]) it was 0.231 nM; in the experiment on HCV replicon 1A (Hepatitis C virus), 3.2 pM; in the experiment on HCV replicon 1B (Hepatitis C virus), 45 pM.

For `COC(=O)NC(C(=O)N1CCC[C@H]1c1ncc(-c2ccc3c(c2)cc2n3C(c3cnc(C(C)(C)C)s3)Oc3cc(-c4cnc([C@@H]5CCCN5C(=O)[C@@H](NC(=O)OC)C(C)C)[nH]4)cc(F)c3-2)[nH]1)C1CCOC(C)(C)C1` (single isomer, unassigned) [Compound 315], the IC50 in the experiment on HCV replicon 2B (read-out: 2B IC50, replicon 2B) stood at 0.004 nM; with HCV replicon 1AY93H (setting [2]), 0.0028 nM; with HCV replicon 1A it was 2.7 pM; in the experiment with HCV replicon 1B (Hepatitis C virus), 2 pM.

As for `COC(=O)NC(C(=O)N1CCC[C@H]1c1ncc(-c2ccc3c(c2)cc2n3C(c3cnc(C(C)(C)C)s3)Oc3cc(-c4cnc([C@@H]5CCCN5C(=O)[C@@H](NC(=O)OC)C(C)C)[nH]4)cc(F)c3-2)[nH]1)C1CCOC(C)(C)C1` (single isomer, unassigned) [Compound 316], the IC50 with HCV replicon 2B (read-out: 2B IC50, replicon 2B) worked out at 0.012 nM; with HCV replicon 1AY93H (setting [2]), 0.0162 nM; with HCV replicon 1A it was 1.1 pM; in the experiment on HCV replicon 1B, 4 pM.

As to `COC(=O)N[C@H](C(=O)N1CCC[C@H]1c1ncc(-c2cc(F)c3c(c2)OC(c2csc(C4CC4)n2)n2c-3cc3cc(-c4cnc([C@@H]5CCCN5C(=O)[C@@H](NC(=O)OC)C(C)C)[nH]4)ccc32)[nH]1)C(C)C` (single isomer, unassigned) [Compound 432], the IC50 turned out to be 4 nM with HCV replicon 2B (read-out: 2B IC50, replicon 2B); 2.6 nM in the experiment with HCV replicon 1AY93H (setting [2]); 1 pM in the experiment on HCV replicon 1A (Hepatitis C virus); 1 pM with HCV replicon 1B (Hepatitis C virus).

`COC(=O)NC(C(=O)N1CCC[C@H]1c1ncc(-c2ccc3c(c2)cc2n3C(c3sc(C(C)C)nc3C)Oc3cc(-c4cnc([C@@H]5CCCN5C(=O)[C@@H](NC(=O)OC)C(C)C)[nH]4)cc(F)c3-2)[nH]1)C1CCOC(C)(C)C1` (single isomer, unassigned) [Compound 434]: the IC50 in the experiment with HCV replicon 2B (setting [3]) is 0.293 nM; in the experiment on HCV replicon 1AY93H (setting [1]) it was 0.729 nM; in the experiment with HCV replicon 1A (Hepatitis C virus) it was 2.3 pM; in the experiment on HCV replicon 1B (Hepatitis C virus), 3.5 pM.

For the molecule `COC(=O)NC(C(=O)N1CCC[C@H]1c1ncc(-c2ccc3c(c2)cc2n3C(c3sc(C(C)C)nc3C)Oc3cc(-c4cnc([C@@H]5CCCN5C(=O)[C@@H](NC(=O)OC)C(C)C)[nH]4)cc(F)c3-2)[nH]1)C1CCOC(C)(C)C1` (single isomer, unassigned) [Compound 435], the IC50 is 0.181 nM with HCV replicon 2B (read-out: 2B IC50, replicon 2B); 0.618 nM in the experiment on HCV replicon 1AY93H (setting [2]); 2.8 pM with HCV replicon 1A; 3.8 pM in the experiment with HCV replicon 1B.

As to `COC(=O)NC(C(=O)N1CCC[C@H]1c1ncc(-c2ccc3c(c2)cc2n3C(c3cnc(C4(C)CC4)s3)Oc3cc(-c4cnc([C@@H]5CCCN5C(=O)[C@@H](NC(=O)OC)C(C)C)[nH]4)cc(F)c3-2)[nH]1)C1CCOC(C)(C)C1` (single isomer, unassigned) [Compound 459], the concentration for half-maximal inhibition (IC50) in the experiment on HCV replicon 2B (read-out: 2B IC50, replicon 2B) is 0.083 nM; in the experiment on HCV replicon 1AY93H (setting [2]), 0.296 nM; in the experiment on HCV replicon 1A, 2.3 pM; in the experiment with HCV replicon 1B, 3 pM.

As to `COC(=O)NC(C(=O)N1CCC[C@H]1c1ncc(-c2ccc3c(c2)cc2n3C(c3cnc(C4(C)CC4)s3)Oc3cc(-c4cnc([C@@H]5CCCN5C(=O)[C@@H](NC(=O)OC)C(C)C)[nH]4)cc(F)c3-2)[nH]1)C1CCOC(C)(C)C1` (single isomer, unassigned) [Compound 460], the IC50 with HCV replicon 2B (read-out: 2B IC50, replicon 2B) stood at 0.138 nM; in the experiment on HCV replicon 1AY93H (setting [2]), 0.288 nM; in the experiment on HCV replicon 1A it was 2.7 pM; in the experiment with HCV replicon 1B, 3.9 pM.

In the case of `COC(=O)NC(C(=O)N1CCC[C@H]1c1ncc(-c2ccc3c(c2)cc2n3C(c3cnc(C4(C)CC4)s3)Oc3cc(-c4cnc([C@@H]5CCCN5C(=O)[C@@H](NC(=O)OC)C(C)C)[nH]4)cc(F)c3-2)[nH]1)C1C[C@@H](C)O[C@@H](C)C1` (single isomer, unassigned) [Compound 461], the IC50 with HCV replicon 2B (read-out: 2B IC50, replicon 2B) stood at 0.132 nM; in the experiment with HCV replicon 1AY93H (setting [2]), 0.32 nM; in the experiment with HCV replicon 1A (Hepatitis C virus) it was 2.2 pM; with HCV replicon 1B (Hepatitis C virus) it was 3.8 pM.

With `COC(=O)NC(C(=O)N1CCC[C@H]1c1ncc(-c2ccc3c(c2)cc2n3C(c3cnc(C4(C)CCCC4)s3)Oc3cc(-c4cnc([C@@H]5CCCN5C(=O)[C@@H](NC(=O)OC)C(C)C)[nH]4)cc(F)c3-2)[nH]1)C1C[C@@H](C)O[C@@H](C)C1` (single isomer, unassigned) [Compound 470], the IC50 with HCV replicon 2B (read-out: 2B IC50, replicon 2B) stood at 0.106 nM; with HCV replicon 1AY93H (setting [2]), 0.514 nM; in the experiment with HCV replicon 1A it was 2.6 pM; in the experiment on HCV replicon 1B, 3.5 pM.

Take `COC(=O)NC(C(=O)N1[C@@H]2C[C@@H]2C[C@H]1c1ncc(-c2ccc3c(c2)cc2n3C(c3cnc(C4(C)CCCC4)s3)Oc3cc(-c4cnc([C@@H]5CCCN5C(=O)[C@@H](NC(=O)OC)C(C)C)[nH]4)cc(F)c3-2)[nH]1)C1C[C@@H](C)O[C@@H](C)C1` (single isomer, unassigned) [Compound 474]: the IC50 is 0.263 nM with HCV replicon 2B (read-out: 2B IC50, replicon 2B); 0.269 nM in the experiment with HCV replicon 1AY93H (setting [2]); 1.5 pM with HCV replicon 1A; 3.6 pM with HCV replicon 1B.

Take `COC(=O)NC(C(=O)N1[C@@H]2C[C@@H]2C[C@H]1c1ncc(-c2ccc3c(c2)cc2n3C(c3cnc(C4(C)CCCC4)s3)Oc3cc(-c4cnc([C@@H]5CCCN5C(=O)[C@@H](NC(=O)OC)C(C)C)[nH]4)cc(F)c3-2)[nH]1)C1CCOC(C)(C)C1` (single isomer, unassigned) [Compound 476]: the half-maximal inhibitory concentration (IC50) with HCV replicon 2B (read-out: 2B IC50, replicon 2B) was determined as 0.19 nM; in the experiment on HCV replicon 1AY93H (setting [2]) it was 0.316 nM; in the experiment on HCV replicon 1A it was 1.1 pM; in the experiment with HCV replicon 1B, 3.5 pM.

`COC(=O)N[C@H](C(=O)N1CCC[C@H]1c1ncc(-c2cc(F)c3c(c2)OC(c2cnc(C4CC4)s2)n2c-3c(C)c3cc(-c4cnc([C@@H]5CCCN5C(=O)[C@@H](NC(=O)OC)C(C)C)[nH]4)ccc32)[nH]1)C(C)C` (single isomer, unassigned) [Compound 495]: the IC50 was 0.184 nM with HCV replicon 2B (replicon 2B, read-out: 2B IC50); 0.27 nM in the experiment with HCV replicon 1AY93H (setting [4]); 1.6 pM in the experiment on HCV replicon 1A; 2.5 pM in the experiment on HCV replicon 1B.

Regarding `COC(=O)N[C@H](C(=O)N1CCC[C@H]1c1ncc(-c2cc(F)c3c(c2)OC(c2nc4c(s2)CCC4)n2c-3cc3cc(-c4cnc([C@@H]5CCCN5C(=O)[C@@H](NC(=O)OC)C(C)C)[nH]4)ccc32)[nH]1)C(C)C` (single isomer, unassigned) [Compound 504], the IC50 is 1.67 nM in the experiment on HCV replicon 2B (read-out: 2B IC50, replicon 2B); 1.67 nM in the experiment on HCV replicon 1AY93H (setting [2]); 2.6 pM in the experiment on HCV replicon 1A (Hepatitis C virus); 2.4 pM in the experiment with HCV replicon 1B (Hepatitis C virus).

Consider `COC(=O)N[C@H](C(=O)N1CCC[C@H]1c1ncc(-c2cc(F)c3c(c2)OC(c2cnc(CC4CC4)s2)n2c-3cc3cc(-c4cnc([C@@H]5CCCN5C(=O)[C@@H](NC(=O)OC)C(C)C)[nH]4)ccc32)[nH]1)C(C)C` (single isomer, unassigned) [Compound 509], for which the IC50 in the experiment on HCV replicon 2B (replicon 2B, read-out: 2B IC50) turned out to be 0.018 nM; with HCV replicon 1AY93H (setting [4]), 0.014 nM; in the experiment with HCV replicon 1A, 2 pM; in the experiment with HCV replicon 1B, 2.8 pM.

Take `COC(=O)N[C@H](C(=O)N1CCC[C@H]1c1ncc(-c2cc(F)c3c(c2)OC(c2cnc(C4(C)CC4)s2)n2c-3cc3cc(-c4cnc([C@@H]5CCCN5C(=O)[C@@H](NC(=O)OC)C(C)C)[nH]4)ccc32)[nH]1)C(C)C` (single isomer, unassigned) [Compound 512]: the IC50 with HCV replicon 2B (read-out: 2B IC50, replicon 2B) came to 0.783 nM; in the experiment on HCV replicon 1AY93H (setting [2]), 0.347 nM; with HCV replicon 1A, 8.5 pM; with HCV replicon 1B, 3.9 pM.

As for `COC(=O)N[C@H](C(=O)N1CCC[C@H]1c1ncc(-c2cc(F)c3c(c2)OC(c2sc(C(C)C)nc2C)n2c-3cc3cc(-c4cnc([C@@H]5CCCN5C(=O)[C@@H](NC(=O)OC)C(C)C)[nH]4)ccc32)[nH]1)C(C)C` (single isomer, unassigned) [Compound 515], the IC50 was determined as 1.84 nM with HCV replicon 2B (setting [3]), 4.45 nM in the experiment on HCV replicon 1AY93H (setting [1]), 1.3 pM in the experiment with HCV replicon 1A (Hepatitis C virus) and 2.9 pM in the experiment on HCV replicon 1B (Hepatitis C virus).

`COC(=O)N[C@H](C(=O)N1CCC[C@H]1c1ncc(-c2cc(F)c3c(c2)OC(c2cnc(C4CCOCC4)s2)n2c-3cc3cc(-c4cnc([C@@H]5CCCN5C(=O)[C@@H](NC(=O)OC)C(C)C)[nH]4)ccc32)[nH]1)C(C)C` (single isomer, unassigned) [Compound 532]: the 50% inhibitory concentration (IC50) was determined as 1.18 nM in the experiment with HCV replicon 2B (read-out: 2B IC50, replicon 2B); 1.76 nM with HCV replicon 1AY93H (setting [2]); 1.3 pM in the experiment with HCV replicon 1A; 3.6 pM in the experiment with HCV replicon 1B.
